This is an account of results in patent publication US8134015B2, “Compound inhibiting in vivo phosphorous transport and medicine containing the same” (Kyowa Hakko Kirin Co., Ltd., priority 2003, dated 2012).

Bounds are passed on as bounds.

In this test the target is T1, rat NaPi-2b (Rattus norvegicus, UniProt Q9JJ09).
T1 construct: expressed in transfected cells; host or cells: Xenopus oocytes injected with cRNA
T1 sequence (Q9JJ09 1-695): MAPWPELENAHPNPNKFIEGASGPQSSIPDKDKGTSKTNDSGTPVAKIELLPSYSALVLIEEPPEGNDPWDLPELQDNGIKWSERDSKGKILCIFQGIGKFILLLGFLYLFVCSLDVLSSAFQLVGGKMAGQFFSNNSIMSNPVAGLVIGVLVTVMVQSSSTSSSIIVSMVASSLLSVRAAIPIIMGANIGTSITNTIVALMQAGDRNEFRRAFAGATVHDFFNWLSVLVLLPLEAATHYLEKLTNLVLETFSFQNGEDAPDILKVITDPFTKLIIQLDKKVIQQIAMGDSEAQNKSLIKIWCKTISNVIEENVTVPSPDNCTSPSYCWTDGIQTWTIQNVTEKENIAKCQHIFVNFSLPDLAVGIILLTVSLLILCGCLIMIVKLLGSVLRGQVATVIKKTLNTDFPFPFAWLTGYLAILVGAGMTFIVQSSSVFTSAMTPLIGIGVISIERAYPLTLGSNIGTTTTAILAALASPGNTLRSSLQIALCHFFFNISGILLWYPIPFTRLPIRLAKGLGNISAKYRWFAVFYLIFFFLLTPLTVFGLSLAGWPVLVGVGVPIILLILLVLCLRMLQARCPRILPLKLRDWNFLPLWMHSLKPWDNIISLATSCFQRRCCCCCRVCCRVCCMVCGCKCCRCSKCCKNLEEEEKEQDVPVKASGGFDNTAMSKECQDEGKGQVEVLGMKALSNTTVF
Briefly: Sodium-dependent phosphate uptake of Xenopus oocytes which expressed NaPi-2b (32P). The class given is cell-based. The conditions noted are these: for IC50: Xenopus oocytes expressing rat NaPi-2b, 32P radioactive phosphorus, read-out: IC50 (phosphate uptake inhibitory activity); for inhibition at 300 µM: phosphate uptake, oocytes expressing rat NaPi-2b, determined from inhibition curve. The gist of the method: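 Inhibition at 300 μM and 100 μM was read off one inhibition curve of 32P phosphate uptake. Uptake was measured in Xenopus oocytes cultured 2 days after injection of cRNA for cloned rat NaPi-2b.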

With `O=C(Nc1ccc(Br)cc1C(=O)N/N=C/c1ccc(Cl)c(C(F)(F)F)c1)c1ccc(CNCCN2CCOCC2)cc1` [Compound 714, N-[4-Bromo-2-(4-chloro-3-trifluoromethyl-benzylidene-hydrazinocarbonyl)-phenyl]-4-[(2-morpholin-4-yl-ethylamino)-methyl]-benzamide], the IC50 turned out to be 3.52 µM.

With `COc1ccc(/C=N/NC(=O)c2cc(Br)ccc2NC(=O)c2ccc(CNCCN3CCOCC3)cc2)cc1` [Compound 715, N-[4-Bromo-2-(4-methoxy-benzylidene-hydrazinocarbonyl)-phenyl]-4-[(2-morpholin-4-yl-ethylamino)-methyl]-benzamide], the inhibition at 300 µM was 84.1%.

For `COc1cccc(/C=N/NC(=O)c2cc(Br)ccc2NC(=O)c2ccc(CNCCN3CCOCC3)cc2)c1` [Compound 716, N-[4-Bromo-2-(3-methoxy-benzylidene-hydrazinocarbonyl)-phenyl]-4-[(2-morpholin-4-yl-ethylamino)-methyl]-benzamide], the inhibition at 300 µM stood at 85.8%. Still for that read-out and setting: in the case of `Cc1ccc(/C=N/NC(=O)c2cc(Br)ccc2NC(=O)c2ccc(CN3CCN(c4ccc(F)cc4)CC3)cc2)cc1C` [Compound 717, N-[4-Bromo-2-(3,4-dimethyl-benzylidene-hydrazinocarbonyl)-phenyl]-4-[4-(4-fluoro-phenyl)-piperazin-1-ylmethyl]-benzamide] it was 53.5%. For the compound `Cc1cccc(/C=N/NC(=O)c2cc(Br)ccc2NC(=O)c2ccc(CN(CC(C)O)CC(C)O)cc2)c1` (stereo not shown) [Compound 718, 4-{[Bis-(2-hydroxy-propyl)-amino]-methyl}-N-[4-bromo-2-(3-methyl-benzylidene-hydrazinocarbonyl)-phenyl]-benzamide], the IC50 was determined as 6.91 µM.

As to `CC(O)CN(Cc1ccc(C(=O)Nc2ccc(Br)cc2C(=O)N/N=C/c2ccc(F)cc2)cc1)CC(C)O` (stereo not shown) [Compound 719, 4-{[Bis-(2-hydroxy-propyl)-amino]-methyl}-N-[4-bromo-2-(4-fluoro-benzylidene-hydrazinocarbonyl)-phenyl]-benzamide], the concentration for half-maximal inhibition (IC50) was found to be 9.59 µM.

As for `CC(O)CN(Cc1ccc(C(=O)Nc2ccc(Br)cc2C(=O)N/N=C/c2cccc(F)c2)cc1)CC(C)O` (stereo not shown) [Compound 720, 4-{[Bis-(2-hydroxy-propyl)-amino]-methyl}-N-[4-bromo-2-(3-fluoro-benzylidene-hydrazinocarbonyl)-phenyl]-benzamide], the IC50 stood at 3.51 µM.

`CC(O)CN(Cc1ccc(C(=O)Nc2ccc(Br)cc2C(=O)N/N=C/c2ccc(Cl)c(C(F)(F)F)c2)cc1)CC(C)O` (stereo not shown) [Compound 721, 4-{[Bis-(2-hydroxy-propyl)-amino]-methyl}-N-[4-bromo-2-(4-chloro-3-trifluoromethyl-benzylidene-hydrazinocarbonyl)-phenyl]-benzamide]: the IC50 was 22.3 µM.

Regarding `COc1ccc(/C=N/NC(=O)c2cc(Br)ccc2NC(=O)c2ccc(CN(CC(C)O)CC(C)O)cc2)cc1` (stereo not shown) [Compound 722, 4-{[Bis-(2-hydroxy-propyl)-amino]-methyl}-N-[4-bromo-2-(4-methoxy-benzylidene-hydrazinocarbonyl)-phenyl]-benzamide], the IC50 turned out to be 12.8 µM. On the same count and under the same terms, in the case of `COc1cccc(/C=N/NC(=O)c2cc(Br)ccc2NC(=O)c2ccc(CN(CC(C)O)CC(C)O)cc2)c1` (stereo not shown) [Compound 723, 4-{[Bis-(2-hydroxy-propyl)-amino]-methyl}-N-[4-bromo-2-(3-methoxy-benzylidene-hydrazinocarbonyl)-phenyl]-benzamide] it was 18 µM; in that of `Cc1ccc(/C=N/NC(=O)c2cc(Br)ccc2NC(=O)c2ccc(CN(C)CC(O)c3ccc(O)cc3)cc2)cc1C` (stereo not shown) [Compound 724, N-[4-Bromo-2-(3,4-dimethyl-benzylidene-hydrazinocarbonyl)-phenyl]-4-({[2-hydroxy-2-(4-hydroxy-phenyl)-ethyl]-methyl-amino}-methyl)-benzamide], 17.1 µM. The same measure, in the same setting: in the case of `CN(Cc1ccc(C(=O)Nc2ccc(Br)cc2C(=O)N/N=C/c2cccc(F)c2)cc1)CC(O)c1ccc(O)cc1` (stereo not shown) [Compound 725, N-[4-Bromo-2-(3-fluoro-benzylidene-hydrazinocarbonyl)-phenyl]-4-({[2-hydroxy-2-(4-hydroxy-phenyl)-ethyl]-methyl-amino}-methyl)-benzamide] it was 69.4 µM. Same read-out and setting: for `CN(Cc1ccc(C(=O)Nc2ccc(Br)cc2C(=O)N/N=C/c2ccc(Cl)c(C(F)(F)F)c2)cc1)CC(O)c1ccc(O)cc1` (stereo not shown) [Compound 726, N-[4-Bromo-2-(4-chloro-3-trifluoromethyl-benzylidene-hydrazinocarbonyl)-phenyl]-4-({[2-hydroxy-2-(4-hydroxy-phenyl)-ethyl]-methyl-amino}-methyl)-benzamide] the value was less than 3 µM. The compound `COc1cccc(/C=N/NC(=O)c2cc(Br)ccc2NC(=O)c2ccc(CN(C)CC(O)c3ccc(O)cc3)cc2)c1` (stereo not shown) [Compound 727, N-[4-Bromo-2-(3-methoxy-benzylidene-hydrazinocarbonyl)-phenyl]-4-({[2-hydroxy-2-(4-hydroxy-phenyl)-ethyl]-methyl-amino}-methyl)-benzamide] registered an inhibition at 300 µM of 67.7%. For the compound `Cc1ccc(/C=N/NC(=O)c2cc(Br)ccc2NC(=O)c2ccc(CN3CCN(CC(=O)N4CCOCC4)CC3)cc2)cc1` [Compound 728, N-[4-Bromo-2-(4-methyl-benzylidene-hydrazinocarbonyl)-phenyl]-4-[4-(2-morpholin-4-yl-2-oxo-ethyl)-piperazin-1-ylmethyl]-benzamide], the IC50 stood at 20.3 µM.

As to `Cc1cccc(/C=N/NC(=O)c2cc(Br)ccc2NC(=O)c2ccc(CN3CCN(CC(=O)N4CCOCC4)CC3)cc2)c1` [Compound 729, N-[4-Bromo-2-(3-methyl-benzylidene-hydrazinocarbonyl)-phenyl]-4-[4-(2-morpholin-4-yl-2-oxo-ethyl)-piperazin-1-ylmethyl]-benzamide], the half-maximal inhibitory concentration (IC50) is 27.3 µM.

Regarding `O=C(Nc1ccc(Br)cc1C(=O)N/N=C/c1ccc(F)cc1)c1ccc(CN2CCN(CC(=O)N3CCOCC3)CC2)cc1` [Compound 730, N-[4-Bromo-2-(4-fluoro-benzylidene-hydrazinocarbonyl)-phenyl]-4-[4-(2-morpholin-4-yl-2-oxo-ethyl)-piperazin-1-ylmethyl]-benzamide], the IC50 came out at 15.7 µM. The same measure, in the same setting: in the case of `O=C(Nc1ccc(Br)cc1C(=O)N/N=C/c1cccc(F)c1)c1ccc(CN2CCN(CC(=O)N3CCOCC3)CC2)cc1` [Compound 731, N-[4-Bromo-2-(3-fluoro-benzylidene-hydrazinocarbonyl)-phenyl]-4-[4-(2-morpholin-4-yl-2-oxo-ethyl)-piperazin-1-ylmethyl]-benzamide] it was 19.2 µM; in that of `COc1cccc(/C=N/NC(=O)c2cc(Br)ccc2NC(=O)c2ccc(CN3CCN(CC(=O)N4CCOCC4)CC3)cc2)c1` [Compound 732, N-[4-Bromo-2-(3-methoxy-benzylidene-hydrazinocarbonyl)-phenyl]-4-[4-(2-morpholin-4-yl-2-oxo-ethyl)-piperazin-1-ylmethyl]-benzamide], 29.4 µM; in that of `CCOCCN(CCOCC)Cc1ccc(C(=O)Nc2ccc(Br)cc2C(=O)N/N=C/c2ccc(C)c(C)c2)cc1` [Compound 733, 4-{[Bis-(2-ethoxy-ethyl)-amino]-methyl}-N-[4-bromo-2-(3,4-dimethyl-benzylidene-hydrazinocarbonyl)-phenyl]-benzamide], less than 10 µM. `CCOCCN(CCOCC)Cc1ccc(C(=O)Nc2ccc(Br)cc2C(=O)N/N=C/c2ccc(C)cc2)cc1` [Compound 734, 4-{[Bis-(2-ethoxy-ethyl)-amino]-methyl}-N-[4-bromo-2-(4-methyl-benzylidene-hydrazinocarbonyl)-phenyl]-benzamide] showed an inhibition at 300 µM of 64.9%. `CCOCCN(CCOCC)Cc1ccc(C(=O)Nc2ccc(Br)cc2C(=O)N/N=C/c2cccc(C)c2)cc1` [Compound 735, 4-{[Bis-(2-ethoxy-ethyl)-amino]-methyl}-N-[4-bromo-2-(3-methyl-benzylidene-hydrazinocarbonyl)-phenyl]-benzamide]: the concentration for half-maximal inhibition (IC50) was 18.3 µM. Turning to `CCOCCN(CCOCC)Cc1ccc(C(=O)Nc2ccc(Br)cc2C(=O)N/N=C/c2ccc(F)cc2)cc1` [Compound 736, 4-{[Bis-(2-ethoxy-ethyl)-amino]-methyl}-N-[4-bromo-2-(4-fluoro-benzylidene-hydrazinocarbonyl)-phenyl]-benzamide], the inhibition at 300 µM worked out at 61.5%. For `CCOCCN(CCOCC)Cc1ccc(C(=O)Nc2ccc(Br)cc2C(=O)N/N=C/c2cccc(F)c2)cc1` [Compound 737, 4-{[Bis-(2-ethoxy-ethyl)-amino]-methyl}-N-[4-bromo-2-(3-fluoro-benzylidene-hydrazinocarbonyl)-phenyl]-benzamide], the IC50 stood at 4.24 µM. On the same count and under the same terms, in the case of `CCOCCN(CCOCC)Cc1ccc(C(=O)Nc2ccc(Br)cc2C(=O)N/N=C/c2ccc(Cl)c(C(F)(F)F)c2)cc1` [Compound 738, 4-{[Bis-(2-ethoxy-ethyl)-amino]-methyl}-N-[4-bromo-2-(4-chloro-3-trifluoromethyl-benzylidene-hydrazinocarbonyl)-phenyl]-benzamide] it was 7.55 µM.
